# In US9346820B2, “HIV-1 protease inhibitors having gem-di-fluoro bicyclic P2-ligands” (priority 2013, dated 2016):
# Like-named read-outs stand apart in the source and are kept apart here.
# Tests used:
# HIV-1APV^R5μM = test: microbe, parasite or virus in culture; assay type: cell-based; conditions: for EC50: Human immunodeficiency virus 1, MT4, read-out: EC50 HIV-1APV^R5μM; for fold change of EC50 HIV-1APV^R5μM vs HIV-1NL4-3: number in parentheses
# Description: (§1) The susceptibility of HIV-1LAI to various drugs was determined as previously described with minor modifications. Briefly, MT-2 cells (10^4/ml) were exposed to 100 50% tissue culture infectious doses (TCID50) of HIV-1LAI in the presence or absence of various concentrations of drugs in 96-well microculture plates and were incubated at 37° C. for 7 days. After 100 μl of the medium was removed from each well, 3-(4,5-dimetylthiazol-2-yl)-2,5-diphenyltetrazolium bromide (MTT) solution (10 μl, 7.5 mg/ml in phosphate-buffered saline) was added to each well in the plate, followed by incubation at 37° C. for 2 h. […] All assays were performed in duplicate or triplicate. […] To determine the sensitivity of primary HIV-1 isolates to drugs, phytohemagglutinin-stimulated peripheral blood mononuclear cells (PHA-PBMC) (10^6/ml) were exposed to 50 TCID50 of each primary HIV-1 isolate and cultured in the presence or absence of various concentrations of drugs in 10-fold serial dilutions in 96-well microculture plates. In determining the drug susceptibility of certain laboratory HIV-1 strains, MT-4 cells were employed as target cells as previously described with minor modifications. In brief, MT-4 cells (10^5/ml) were exposed to 100 TCID50 of drug-resistant HIV-1 strains in the presence or absence of various concentrations of drugs and were incubated at 37° C. On day 7 of culture, the supernatants were harvested and the amounts of p24 Gag protein were determined by using a fully automated chemiluminescent enzyme immunoassay system (Lumipulse F: Fujirebio Inc., Tokyo). […] All assays were performed in duplicate or triplicate. PHA-PBMs were derived from a single donor in each independent experiment. Thus, for obtaining the data, three different donors were recruited.
# HIV-1ERS104pre [1] = test: p24 Gag production inhibition in PHA-PBMs, wild-type clinical isolate; assay type: cell-based
# Description: All primary HIV-1 strains were passaged once or twice in 3-day-old phytohemagglutinin activated peripheral blood mononuclear cells (PHA-PBM), and the culture supernatants were stored at −80° C. until use.
# as §1
# HIV-1DRV^RP20 = test: Antiviral activity against DRV-resistant variant, passage 20; assay type: cell-based; conditions: Human immunodeficiency virus 1, read-out: EC50 against HIV-1DRV^RP20
# HIV-1ERS104pre [2] = test: Antiviral activity of brain-side medium from the BBB assay, p24 assay in PHA-PBMs; assay type: cell-based; conditions: PHA-activated PBMCs
# Description: The “brain-side” of the medium containing a compound collected in the BBB in vitro assay, was subjected to antiviral assays. Two HIV-1 isolates were employed, HIV-1LAI (Panel A) and HIV-1ERS104pre (Panel B). […] Dilution ranges were between 10-fold and 10,000-fold, and the percentage of viral inhibition was used as an endpoint. […] Assays were conducted in duplicate and error bars show standard deviations.
# The assay was carried out using 10, 100, 1000 and 10000 times-diluted brain-side stocks of compounds.
# [3] = system: multi-drug-resistant clinical HIV-1 variants; test: p24 assay in PHA-PBMs, the six multi-drug-resistant clinical variants taken together; assay type: cell-based; conditions: Human immunodeficiency virus 1, read-out: EC50 values against clinical multi-drug-resistant variants
# Description: The susceptibility of HIV-1LAI to various drugs was determined as previously described with minor modifications. Briefly, MT-2 cells (10^4/ml) were exposed to 100 50% tissue culture infectious doses (TCID50) of HIV-1LAI in the presence or absence of various concentrations of drugs in 96-well microculture plates and were incubated at 37° C. for 7 days. After 100 μl of the medium was removed from each well, 3-(4,5-dimetylthiazol-2-yl)-2,5-diphenyltetrazolium bromide (MTT) solution (10 μl, 7.5 mg/ml in phosphate-buffered saline) was added to each well in the plate, followed by incubation at 37° C. for 2 h. […] All assays were performed in duplicate or triplicate. […] To determine the sensitivity of primary HIV-1 isolates to drugs, phytohemagglutinin-stimulated peripheral blood mononuclear cells (PHA-PBMC) (10^6/ml) were exposed to 50 TCID50 of each primary HIV-1 isolate and cultured in the presence or absence of various concentrations of drugs in 10-fold serial dilutions in 96-well microculture plates. In determining the drug susceptibility of certain laboratory HIV-1 strains, MT-4 cells were employed as target cells as previously described with minor modifications. […] On day 7 of culture, the supernatants were harvested and the amounts of p24 Gag protein were determined by using a fully automated chemiluminescent enzyme immunoassay system (Lumipulse F: Fujirebio Inc., Tokyo). […]
# [4] = system: variants selected with DRV over 10 and 20 passages; test: Antiviral activity against DRV-resistant variants selected over 10 and 20 passages; assay type: cell-based, HIV-1; conditions: Human immunodeficiency virus 1, read-out: EC50 against variants selected with DRV over 10 and 20 passages
# HIV-1NL4-3 = test: In vitro selection of PI-resistant HIV-1 variants in MT-4 cells with sequencing of the protease-encoding region; assay type: cell-based
# Source text: MT-4 cells ([…]) were exposed to HIV-1NL4-3 (500 TCID50) and cultured in the presence of various PIs at an initial concentration of its EC50 value. Viral replication was monitored by the determination of the amount of p24 Gag produced by MT-4 cells. The culture supernatants were harvested on day 7 and used to infect fresh MT-4 cells for the next round of culture in the presence of increasing concentrations of each drug. When the virus began to propagate in the presence of the drug, the drug concentration was increased generally 2- to 3-fold. Proviral DNA samples obtained from the lysates of infected cells were subjected to nucleotide sequencing. This drug selection procedure was carried out until the drug concentration reached 5 μM (31-33). In the experiments for selecting drug-resistant variants, MT-4 cells were exploited as target cells since HIV-1 in general replicates at greater levels in MT-4 cells than in MT-2 cells.
# Molecular cloning and determination of the nucleotide sequences of HIV-1 strains passaged in the presence of anti-HIV-1 agents were performed as described previously (31). In brief, high molecular-weight DNA was extracted from HIV-1-infected MT-4 cells by using the InstaGene Matrix (Bio-Rad Laboratories, Hercules, Calif.) and was subjected to molecular cloning, followed by sequence determination. The primers used for the first round of PCR with the entire Gag- and protease-encoding regions of the HIV-1 genome were LTR F1 (5′-GATGCTACATATAAGCAGCTGC-3′; SEQ ID NO: 13) and PR12 (5′-CTCGTGACAAATTTCTACTAATGC-3′; SEQ ID NO: 14). The first-round PCR mixture consisted of 1 μl of proviral DNA solution, 10 μl of Premix Taq (Ex Taq Version; Takara Bio Inc., Otsu, Japan), and 10 pmol of each of the first PCR primers in a total volume of 20 μl. The PCR conditions used were an initial 3 min at 95° C., followed by 35 cycles of 40 sec at 95° C., 20 sec at 55° C., and 2 min at 72° C., with a final 10 min of extension at 72° C. The first-round PCR products (1 μl) were used directly in the second round of PCR with primers LTR F2 (5′-GAGACTCTGGTAACTAGAGATC-3′; SEQ ID NO: 15) and Ksma2.1 (5′-CCATCCCGGGCTTTAATTTTACTGGTAC-3′; SEQ ID NO: 16) under the PCR conditions of an initial 3 min at 95° C., followed by 35 cycles of 30 sec at 95° C., 20 sec at 55° C., and 2 min at 72° C., with a final 10 min of extension at 72° C. The second-round PCR products were purified with spin columns (MicroSpin S-400 HR columns; Amersham Biosciences Corp., Piscataway, N.J.), cloned directly, and subjected to sequencing with a model 3130 automated DNA sequencer (Applied Biosystems, Foster City, Calif.).
# [5] = Human immunodeficiency virus 1, read-out: EC50 HIV-1ERS104pre (X4)
# [6] = Human immunodeficiency virus 1, PHA-PBMs, p24 Gag endpoint, read-out: EC50 HIV-1ERS104pre (X4)
SMILES,EC50 (HIV-1APV^R5μM),EC50 (HIV-1ERS104pre [1]; [5]),EC50 (HIV-1DRV^RP20),antiviral profile of brain-side preparations (FIG. 5B) (HIV-1ERS104pre [2]),EC50 [3],EC50 [4],fold change of EC50 HIV-1APV^R5μM vs HIV-1NL4-3 (HIV-1APV^R5μM),amino acid substitutions in the protease-encoding region of selected HIV-1NL4-3 (HIV-1NL4-3; by passage 15),"concentration in the presence of which HIV-1NL4-3 attained an ability to replicate (HIV-1NL4-3; by passage 15, starting at 0.003 μM, MT-4 cells)",EC50 (HIV-1ERS104pre [1]; [6]),"concentration in the presence of which HIV-1NL4-3 had acquired an ability to replicate (HIV-1NL4-3; 25 passages, initial concentration 0.003 μM, MT-4 cells)","fold-increased concentration tolerated by selected virus (HIV-1NL4-3; 25 passages, relative to initial concentration 0.003 μM)"
"CC(C)CN(C[C@@H](O)[C@H](Cc1ccccc1)NC(=O)O[C@H]1CO[C@H]2OCC[C@H]21)S(=O)(=O)c1ccc(N)cc1 [DRV, darunavir]",510 nM,4 nM,174 nM,–,–,–,–,–,–,–,–,–
CC(C)CN(C[C@@H](O)[C@H](Cc1ccccc1)NC(=O)O[C@H]1CO[C@H]2OCC(F)(F)[C@H]21)S(=O)(=O)c1ccc(N)cc1 [GRL-05010],560 nM,–,–,virtually the same antiviral profiles,2 to 21 nM,26 to 43 nM,187 fold,"M46I and I50V by passage 15 in all 24 clones examined, while N38K was detected in 8 of 24 clones and M36I in 3 clones",0.037 µM,2.7 nM,–,–
"COC(=O)N[C@H](C(=O)N[C@@H](Cc1ccccc1)[C@@H](O)CN(Cc1ccc(-c2ccccn2)cc1)NC(=O)[C@@H](NC(=O)OC)C(C)(C)C)C(C)(C)C [ATV, Atazanavir]",660 ± 20 nM,2.1 nM,–,–,–,–,–,–,–,–,–,–
"CC(C)(C)NC(=O)[C@@H]1C[C@@H]2CCCC[C@@H]2CN1C[C@@H](O)[C@H](Cc1ccccc1)NC(=O)[C@H](CC(N)=O)NC(=O)c1ccc2ccccc2n1 [SQV, Saquinavir]",90 nM,3.9 nM,–,–,–,–,2 fold,–,–,–,–,–
COc1ccc(S(=O)(=O)N(CC(C)C)C[C@@H](O)[C@H](Cc2ccccc2)NC(=O)OC2CO[C@H]3OCC(F)(F)[C@@H]23)cc1 (stereo partly drawn) [GRL-04810],430 nM,–,–,virtually the same antiviral profiles,2 to 21 nM,30 to 34 nM,860 fold,–,–,2.3 nM,0.080 µM,26 fold
